Experimental data as given in US11337423B1, “Candida auris disinfectant” (priority 2021, dated 2022).

Key:
Assay in all cases: zone of inhibition in vitro test
Format in all cases: cell-based
Escherichia coli 0157:H7 = system: Escherichia coli 0157:H7
[1] = system: Clostridium perfrinqens ATCC 13124
[2] = system: Escherichia coli ATCC 8739
[3] = system: Lactobacillus casei ATCC 393
[4] = system: Pseudomonas aeruqinosa ATCC 9-27
[5] = system: Salmonella enterica ATCC 14028
[6] = system: Methicillin Resistant Staphylococcus aureus ATCC 33591
[7] = system: Candida albicans ATCC 10231
[8] = system: Klebsiella pneumoniae ATCC 4352
Candida auris CDC B11903 = system: Candida auris CDC B11903
[9] = system: Staphylococcus aureus ATCC 6538
[10] = system: Escerichia coli ATCC 43895
MRSE ATCC 51625 = system: MRSE ATCC 51625
[11] = system: Staphyloccus epidermidis ATCC 12228
[12] = system: Propionibacterium acnes ATCC 6919
[13] = Candida auris CDC 811903, Table 2

O=C(O)c1ccc(O)c(O)c1 [Protocatechuic acid, reference compound]
Average (mm) (Escherichia coli 0157:H7): 15.5 mm | RESULTS (mm) Plate 1 (Escherichia coli 0157:H7): 17 mm | RESULTS (mm) Plate 2 (Escherichia coli 0157:H7): 14 mm | Average (mm) [1]: 52 mm | RESULTS (mm) Plate 1 [1]: 54 mm | RESULTS (mm) Plate 2 [1]: 50 mm | Average (mm) [2]: 14 mm | RESULTS (mm) Plate 1 [2]: 14 mm | RESULTS (mm) Plate 2 [2]: 14 mm | Average (mm) [3]: 21 mm | RESULTS (mm) Plate 1 [3]: 18 mm | RESULTS (mm) Plate 2 [3]: 24 mm | Average (mm) [4]: 13 mm | RESULTS (mm) Plate 1 [4]: 13 mm | RESULTS (mm) Plate 2 [4]: 13 mm | Average (mm) [5]: 14 mm | RESULTS (mm) Plate 1 [5]: 15 mm | RESULTS (mm) Plate 2 [5]: 13 mm | Average (mm) [6]: 21 mm | RESULTS (mm) Plate 1 [6]: 21 mm | RESULTS (mm) Plate 2 [6]: 21 mm | Average (mm) [7]: 18 mm | RESULTS (mm) Plate 1 [7]: 21 mm | RESULTS (mm) Plate 2 [7]: 15 mm | Average (mm) [8]: 14.5 mm | RESULTS (mm) Plate 1 [8]: 16 mm | RESULTS (mm) Plate 2 [8]: 13 mm | resistance of Candida auris to the chemical (Candida auris CDC B11903; conclusion in words): very resistant | Average (mm) [9]: 18 mm | RESULTS (mm) Plate 1 [9]: 18 mm | RESULTS (mm) Plate 2 [9]: 18 mm | Average (mm) [10]: 13 mm | RESULTS (mm) Plate 1 [10]: 14 mm | RESULTS (mm) Plate 2 [10]: 12 mm | Average (mm) (MRSE ATCC 51625): 18 mm | RESULTS (mm) Plate 1 (MRSE ATCC 51625): 15 mm | RESULTS (mm) Plate 2 (MRSE ATCC 51625): 20 mm | Average (mm) [11]: 27 mm | RESULTS (mm) Plate 1 [11]: 26 mm | RESULTS (mm) Plate 2 [11]: 28 mm | Average (mm) [12]: 21 mm | RESULTS (mm) Plate 1 [12]: 23 mm | RESULTS (mm) Plate 2 [12]: 19 mm

CCOC(=O)c1ccc(O)c(O)c1 [Ethyl ester of protocatechuic acid, 3,4-Dihydroxybenzoic acid ethyl ester]
Average (mm) (Escherichia coli 0157:H7): 27 mm | RESULTS (mm) Plate 1 (Escherichia coli 0157:H7): 26 mm | RESULTS (mm) Plate 2 (Escherichia coli 0157:H7): 28 mm | Average (mm) [1]: 52 mm | RESULTS (mm) Plate 1 [1]: 50 mm | RESULTS (mm) Plate 2 [1]: 54 mm | Average (mm) [2]: 23 mm | RESULTS (mm) Plate 1 [2]: 22 mm | RESULTS (mm) Plate 2 [2]: 24 mm | Average (mm) [3]: 23 mm | RESULTS (mm) Plate 1 [3]: 24 mm | RESULTS (mm) Plate 2 [3]: 22 mm | Average (mm) [4]: 11 mm | RESULTS (mm) Plate 1 [4]: 11 mm | RESULTS (mm) Plate 2 [4]: 11 mm | Average (mm) [5]: 28 mm | RESULTS (mm) Plate 1 [5]: 28 mm | RESULTS (mm) Plate 2 [5]: 28 mm | Average (mm) [6]: 26.5 mm | RESULTS (mm) Plate 1 [6]: 28 mm | RESULTS (mm) Plate 2 [6]: 25 mm | Average (mm) [7]: 29.5 mm | RESULTS (mm) Plate 1 [7]: 31 mm | RESULTS (mm) Plate 2 [7]: 28 mm | Average (mm) [8]: 27 mm | RESULTS (mm) Plate 1 [8]: 28 mm | RESULTS (mm) Plate 2 [8]: 26 mm | Average (mm) (Candida auris CDC B11903; [13]): 29.5 mm | RESULTS (mm) Plate 2 (Candida auris CDC B11903; [13]): 28 mm | RESULTS (mm) Plate I (Candida auris CDC B11903; [13]): 31 mm | topical disinfection for Candida auris (Candida auris CDC B11903; conclusion in words from the in vitro test results): excellent agent for topical disinfection | Average (mm) [9]: 27 mm | RESULTS (mm) Plate 1 [9]: 26 mm | RESULTS (mm) Plate 2 [9]: 28 mm | Average (mm) [10]: 27 mm | RESULTS (mm) Plate 1 [10]: 25 mm | RESULTS (mm) Plate 2 [10]: 28 mm | Average (mm) (MRSE ATCC 51625): 23 mm | RESULTS (mm) Plate 1 (MRSE ATCC 51625): 23 mm | RESULTS (mm) Plate 2 (MRSE ATCC 51625): 22 mm | Average (mm) [11]: 35 mm | RESULTS (mm) Plate 1 [11]: 35 mm | RESULTS (mm) Plate 2 [11]: 35 mm | Average (mm) [12]: 20 mm | RESULTS (mm) Plate 1 [12]: 22 mm | RESULTS (mm) Plate 2 [12]: 18 mm
